According to ChEMBL document CHEMBL3045927, “Synthesis of 4-methyl-1,2,3-thiadiazole derivatives via Ugi reaction and their biological activities” (2010):

What was measured:
Format in all cases: functional
Rhizoctonia solani = assay: Fungicidal activity against Rhizoctonia solani at 50 ug/ml by growth inhibition method; set-up: scale not given: the % may be the effect or the level left
Alternaria solani = assay: Fungicidal activity against Alternaria solani at 50 ug/ml by growth inhibition method; set-up: scale not given: the % may be the effect or the level left
Mycosphaerella arachidis = assay: Fungicidal activity against Mycosphaerella arachidis at 50 ug/ml by growth inhibition method; set-up: scale not given: the % may be the effect or the level left
Cercospora beticola = assay: Fungicidal activity against Cercospora beticola at 50 ug/ml by growth inhibition method; set-up: scale not given: the % may be the effect or the level left
Colletotrichum lagenaria = assay: Fungicidal activity against Colletotrichum lagenaria at 50 ug/ml by growth inhibition method; set-up: scale not given: the % may be the effect or the level left
Phytophthora infestans = assay: Fungicidal activity against Phytophthora infestans at 50 ug/ml by growth inhibition method; set-up: scale not given: the % may be the effect or the level left
Tobacco mosaic virus [1] = assay: In vitro antiviral activity against Tobacco mosaic virus (TMV) infected tobacco leaves at 100 ug/ml
Fusarium graminearum = assay: Fungicidal activity against Fusarium graminearum at 50 ug/ml by growth inhibition method; set-up: scale not given: the % may be the effect or the level left
Thanatephorus cucumeris = assay: Fungicidal activity against Thanatephorus cucumeris at 50 ug/ml by growth inhibition method; set-up: scale not given: the % may be the effect or the level left
[2] = tested on: Botryosphaeria berengeriana; assay: Fungicidal activity against Botryosphaeria berengeriana at 50 ug/ml by growth inhibition method; set-up: scale not given: the % may be the effect or the level left
Tobacco mosaic virus [3] = assay: In vitro antiviral activity against Tobacco mosaic virus (TMV) infected tobacco leaves at 500 ug/ml
Pyricularia grisea = assay: Fungicidal activity against Magnaporthe grisea at 50 ug/ml by growth inhibition method; set-up: scale not given: the % may be the effect or the level left
Fusarium oxysporum = assay: Fungicidal activity against Fusarium oxysporum at 50 ug/ml by growth inhibition method; set-up: scale not given: the % may be the effect or the level left

Compound | Activity (Rhizoctonia solani) [%] | Activity (Alternaria solani) [%] | Activity (Mycosphaerella arachidis) [%] | Activity (Cercospora beticola) [%] | Activity (Colletotrichum lagenaria) [%] | Activity (Phytophthora infestans) [%] | inhibition at 100 µg/mL (Tobacco mosaic virus [1]) [%] | Activity (Fusarium graminearum) [%] | Activity (Thanatephorus cucumeris) [%] | Activity [2] [%] | inhibition at 500 µg/mL (Tobacco mosaic virus [3]) [%] | Activity (Pyricularia grisea) [%] | Activity (Fusarium oxysporum) [%]
Cc1ccc(N(C(=O)c2snnc2C)C(C(=O)NC2CCCCC2)c2ccccc2F)cc1F (configuration not stated) | 49 | 38 | 29 | 0 | 42 | 41 | 22 | 0 | 33 | 31 | 23 | 43 | –
Cc1ccc(N(C(=O)c2snnc2C)C(C(=O)NC2CCCCC2)c2cccc(F)c2)cc1F (configuration not stated) | 42 | 0 | 21 | 17 | 5 | 5 | 9 | 38 | 0 | 0 | 29 | 0 | –
Cc1ccc(N(C(=O)c2snnc2C)C(C(=O)NC2CCCCC2)c2ccc(F)cc2)cc1F (configuration not stated) | 40 | 44 | 43 | 0 | 26 | 29 | 40 | 8 | 17 | 19 | 36 | 14 | –
Cc1ccc(N(C(=O)c2snnc2C)C(C(=O)NC2CCCCC2)c2ccc(C(F)(F)F)cc2)cc1F (configuration not stated) | 35 | 0 | 57 | 50 | 5 | 0 | 10 | 24 | 6 | 0 | 25 | 14 | –
Cc1ccc(N(C(=O)c2snnc2C)C(C(=O)NC2CCCCC2)c2ccccc2[N+](=O)[O-])cc1F (configuration not stated) | 37 | 0 | 21 | 67 | 5 | 5 | 17 | 41 | 0 | 0 | 29 | 0 | –
Cc1cccc(C(C(=O)NC2CCCCC2)N(C(=O)c2snnc2C)c2ccc(C)c(F)c2)c1 (configuration not stated) | 28 | 0 | 21 | 33 | 0 | 0 | 18 | 34 | 0 | 0 | 29 | 0 | –
Cc1ccc(C(C(=O)NC2CCCCC2)N(C(=O)c2snnc2C)c2ccc(C)c(F)c2)cc1 (configuration not stated) | 33 | 0 | 14 | 17 | 0 | 5 | 52 | 28 | 0 | 0 | 36 | 29 | –
Cc1ccc(N(C(=O)c2snnc2C)C(C(=O)NC2CCCCC2)c2ccccc2C(F)(F)F)cc1Cl (configuration not stated) | 60 | 38 | 29 | 0 | 53 | 41 | 18 | 12 | 33 | 46 | 38 | 43 | –
Cc1ccc(N(C(=O)c2snnc2C)C(C(=O)NC2CCCCC2)c2ccc(C(F)(F)F)cc2)cc1Cl (configuration not stated) | 37 | 31 | 57 | 0 | 16 | 29 | 11 | 19 | 22 | 19 | 34 | 14 | –
Cc1ccc(N(C(=O)c2snnc2C)C(C(=O)NC2CCCCC2)c2cccc([N+](=O)[O-])c2)cc1Cl (configuration not stated) | 40 | 38 | 57 | 0 | 26 | 41 | 11 | 12 | 20 | 19 | 9 | 0 | –
Cc1ccc(N(C(=O)c2snnc2C)C(C(=O)NC2CCCCC2)c2ccc([N+](=O)[O-])cc2)cc1Cl (configuration not stated) | 29 | 35 | 16 | 11 | 24 | 12 | 26 | – | 25 | 38 | 32 | 18 | 22
Cc1ccc(N(C(=O)c2snnc2C)C(C(=O)NC2CCCCC2)c2ccccc2C)cc1Cl (configuration not stated) | 43 | 56 | 14 | 0 | 37 | 35 | 38 | 23 | 43 | 35 | 42 | 0 | –
Cc1cccc(C(C(=O)NC2CCCCC2)N(C(=O)c2snnc2C)c2ccc(C)c(Cl)c2)c1 (configuration not stated) | 63 | 37 | 17 | 27 | 14 | 35 | 11 | – | 24 | 35 | 19 | 10 | 18
Cc1ccc(C(C(=O)NC2CCCCC2)N(C(=O)c2snnc2C)c2ccc(C)c(Cl)c2)cc1 (configuration not stated) | 69 | 42 | 35 | 27 | 18 | 26 | 25 | – | 24 | 26 | 40 | 50 | 18
Cc1ccc(N(C(=O)c2snnc2C)C(C(=O)NC2CCCCC2)c2cccc(O)c2)cc1Cl (configuration not stated) | 43 | 56 | 47 | 44 | 44 | 24 | 24 | – | 22 | 48 | 35 | 29 | 34
Cc1ccc(N(C(=O)c2snnc2C)C(C(=O)NC2CCCCC2)c2ccc(O)cc2)cc1Cl (configuration not stated) | 46 | 50 | 53 | 33 | 8 | 32 | 14 | – | 37 | 31 | 17 | 41 | 38
Cc1ccc(N(C(=O)c2snnc2C)C(C(=O)NC2CCCCC2)c2ccccc2Cl)cc1F (configuration not stated) | 37 | 19 | 29 | 0 | 26 | 47 | 21 | 23 | 22 | 31 | 23 | 14 | –
Cc1ccc(N(C(=O)c2snnc2C)C(C(=O)NC2CCCCC2)c2cccc(Cl)c2)cc1F (configuration not stated) | 34 | 25 | 14 | 13 | 16 | 29 | 15 | 27 | 28 | 8 | 39 | 29 | –
Cc1ccc(N(C(=O)c2snnc2C)C(C(=O)NC2CCCCC2)c2ccc(Cl)cc2)cc1F (configuration not stated) | 43 | 38 | 0 | 0 | 37 | 24 | 28 | 12 | 22 | 23 | 30 | 43 | –
Cc1ccc(N(C(=O)c2snnc2C)C(C(=O)NC2CCCCC2)c2ccc(Cl)cc2)cc1Cl (configuration not stated) | 40 | 38 | 29 | 0 | 32 | 41 | 38 | 35 | 50 | 27 | 29 | 29 | –
Cc1ccc(N(C(=O)c2snnc2C)C(C(=O)NC2CCCCC2)c2ccccc2F)cc1Cl (configuration not stated) | 49 | 38 | 43 | 16 | 47 | 35 | 18 | 46 | 33 | 30 | 24 | 14 | –
